# Reference: patent publication US20160143862A1, “METHOD OF USING BETA-IONONE TO TREAT AND PREVENT DISEASE INDUCED BY PROPIONIBACTERIUM ACNES” (NATIONAL TAIWAN NORMAL UNIVERSTITY, priority 2014, published 2016)
# Legend:
# [1] = tested on: P. acnes-induced IL-8 production by THP-1 cells; experiment: inhibition of P. acnes-induced IL-8 production by THP-1 cells (enzyme immunoassay); format: cell-based, Human; settings: 10, 20, 50 μM; P. acnes MOI 75; 24-h incubation; p<0.001
# Protocol: Propionibacterium acnes (BCRC 10723, purchased from the Bioresource Collection and Research Center, Hsinchu, Taiwan) was cultured in a brain heart infusion (BHI) broth. The bacteria were cultured in an anaerobic atmosphere using BBL GasPak systems.
# [2] = tested on: Propionibacterium acnes-induced ear swelling in ICR mice; experiment: P. acnes-induced mouse ear inflammation (ear thickness, biopsy weight, redness, neutrophil infiltration); format: in vivo
# Description: In the animal experiment of this embodiment, four-week-old male […] were purchased from the Experimental Animal Center of the National Taiwan University. After 1 week of adaptation, the mice were randomly divided into three groups of six animals each. The three groups of mice are, namely a blank control group of mice injected with a phosphate buffer solution (hereinafter referred to as “PBS-control”), an experimental group of mice injected with Propionibacterium acnes (hereinafter referred to as “P. acnes group”), and an experimental group of mice injected with Propionibacterium acnes and beta-ionone (hereinafter referred to as “P. acnes+beta-ionone group”). Mice were housed in plastic cages, under standard temperature-controlled conditions with a 12 h/12 h light-dark cycle and free access to food and water throughout the experiments. The experiments are each carried out by following the steps described below, so as to inject 10 µL of liquid (phosphate buffer solution (PBS), P. acnes, or P. acnes+beta-ionone) into the mice' ears, respectively. […] Mercy killing is carried out to all the mice 24 hours after the aforesaid injections, and then the ear's swelling induced by P. acnes was quantified as the percentage increases in the thickness and weight of the left ear biopsy. The thickness of the mice's ears is measured with a micrometer caliper. […]
# [3] = tested on: human monocytic THP-1 cells; experiment: cytotoxicity of beta-ionone on THP-1 cells (cellular viability)
# Protocol: Human monocytic THP-1 cells (BCRC 60430, purchased from the Bioresource Collection and Research Center, Hsinchu, Taiwan) were cultured in RPMI 1640 medium and supplemented with 10% of fetal bovine serum, 0.05 mM of 2-mercaptoethanol, and 100 units/mL of penicillin G sodium, 100 μg/mL of streptomycin sulfate, and 250 ng/mL of amphotericin B at 37° C. in a 5% CO2 humidified environment.
# THP-1 cells are seeded at 2×10^5 cells/well in a 96-well plate with FBS-free RMPI 1640 medium, and are stimulated with Propionibacterium acnes (multiplicity of infection=75) alone or in combination with various concentrations of 10, 20, 50 μM of beta-ionone for a 24-h incubation.
structure (smiles),measurement,setting,value
"CC(=O)/C=C/C1=C(C)CCCC1(C)C [beta-ionone, (3E)-4-(2,6,6-trimethylcyclohex-1-en-1-yl)but-3-en-2-one]",inhibitory effect on P. acnes-induced IL-8 production by THP-1 cells,[1],marked inhibitive effect
same,"effect on redness, neutrophils infiltration and swelling (ear thickness and biopsy weight) caused by P. acnes","[2]; 50 μg/10 μL injected into ear with 6×10^7 CFU P. acnes, 24 hours, p<0.01, p<0.001","effective in reducing the redness, neutrophils infiltration, and swelling"
same,redness and swelling of right ears (P. acnes + beta-ionone) versus left ears (P. acnes),"[2]; 50 μg/10 μL injected into ear, 24 hours after injection, FIG. 9",significantly abated redness and swelling
same,cytotoxic effect on human monocytic THP-1 cells,"[3]; beta-ionone at 10, 20, 50 μM",does not have any cytotoxic effect
same,concentration with cytotoxic effect on THP-1 cells,"[3]; cellular viability compared with untreated control, p<0.05, p<0.001",≥ 100 µM
